In US20230225988A1, “ANTIVIRAL USE OF CALIXARENES” (CEBINA GmbH, priority 2020, published 2023):
Where two headings read alike, the source gives them in different places.

What was measured:
HCoV 229E = details: Geller et al., Antiviral Research 2010; cited from earlier work
influenza H1N1 [1] = type: cell-based; details: CX-1 500 μM apical
influenza H1N1 [2] = type: cell-based; details: day 4 post infection, CX-1 500 μM versus buffer treated cells (FIG. 5)
[3] = tested on: human nasal epithelial cells (MucilAir Pool); details: non-infected cells, LDH release from basal wash
SARS-CoV-2 [4] = assay: Microscopic examination of the cytopathogenic effect in SARS-CoV-2 infected Vero E6 cells
SARS-CoV-2 [5] = assay: PCR quantification of SARS-CoV-2 viral particles in supernatants of infected Vero E6 cells; details: for viral particle number, Sample #1 / viral particle number, Sample #2 / viral particle number, Sample #3: Vero E6, MOI 0.01; for viral particle number, average: average of triplicate
[6] = 24 h post-infection, versus buffer treated cells (FIG. 4 panel A)
[7] = 48 h post infection, versus buffer treated cells (FIG. 4 panel B)
[8] = CX-1 500 μM, 24 h post-infection, prophylactic setting
[9] = CX-1 500 μM, 48 h post-infection, prophylactic setting

Compound	activity against HCoV 229E (HCoV 229E)	decrease in viral genome copy (influenza H1N1 [1]; [6]) [log]	reduction in viral genome copy (influenza H1N1 [1]; [6]) [%]	decrease in viral genome copy (influenza H1N1 [1]; [7]) [log]	reduction in viral genome copy (influenza H1N1 [1]; [7]) [%]	cilia beating frequency (influenza H1N1 [2])	cytotoxicity [3]	protection of infected cells from dying (cytopathogenic effect, microscopy) (SARS-CoV-2 [4]; prophylactic setting, 500, 100 or 20 μM, 48 h post infection (FIG. 1))	protection of infected cells from dying (cytopathogenic effect, microscopy) (SARS-CoV-2 [4]; therapeutic setting, CX-1 added after 30 min infection, 48 h post infection (FIG. 2))	reduction in viral genome copy number (SARS-CoV-2 [5]; 50 μM CX-1, preventive setting (FIG. 3)) [%]	viral particle number, Sample #1 (SARS-CoV-2 [5]; [8]) [viral particle number/μl]	viral particle number, Sample #2 (SARS-CoV-2 [5]; [8]) [viral particle number/μl]	viral particle number, Sample #3 (SARS-CoV-2 [5]; [8]) [viral particle number/μl]	viral particle number, average (SARS-CoV-2 [5]; [8]) [viral particle number/μl]	viral particle number, Sample #1 (SARS-CoV-2 [5]; [9]) [viral particle number/μl]	viral particle number, Sample #2 (SARS-CoV-2 [5]; [9]) [viral particle number/μl]	viral particle number, Sample #3 (SARS-CoV-2 [5]; [9]) [viral particle number/μl]	viral particle number, average (SARS-CoV-2 [5]; [9]) [viral particle number/μl]	potency (reduction in viral particles) (SARS-CoV-2 [5]; CX-1 500 μM, 48 h post-infection, prophylactic setting, versus virus only) [%]	reduction in viral genome copy number (SARS-CoV-2 [5]; lower dilutions of CX-1, preventive setting, versus infected non-treated control (FIG. 3))
1,3-bis(bithiazolyl)-tetra-para-sulfonato-calix[4]arene [C[4]S-BTZ]	very effective	–	–	–	–	–	–	–	–	–	–	–	–	–	–	–	–	–	–	–
O=S(=O)(O)c1cc2c(O)c(c1)Cc1cc(S(=O)(=O)O)cc(c1O)Cc1cc(S(=O)(=O)O)cc(c1O)Cc1cc(S(=O)(=O)O)cc(c1O)C2 [CX-1, 5,11,17,23-sulfonato-25,26,27,28-tetrahydroxycalix[4]arene]	–	−0.9	88	~0.8	80.5	significantly higher	no cytotoxicity	significantly protected from dying	significantly protected from dying	30	0.00	0.00	1.48	0.49	11.10	15.00	8.63	11.57	95	over 90%
O=S(=O)(O)c1cc2c(O)c(c1)Cc1cc(S(=O)(=O)O)cc(c1O)Cc1cc(S(=O)(=O)O)cc(c1O)Cc1cc(S(=O)(=O)O)cc(c1O)C2 [C[4]S, tetra-para-sulfonato-calix[4]arene]	only very weak activity	–	–	–	–	–	–	–	–	–	–	–	–	–	–	–	–	–	–	–
